Values after ≈ are worked out from the molar mass of the structure shown.
Experiments:
Candida albicans [1] = experiment: Antifungal activity against Candida albicans ATCC 10231 at 1 mg/ml after 24 hr by agar cup diffusion method; assay type: functional; conditions: ATCC 10231, 24 h, read-out: DIZ
[2] = molecular target: Cyclin-dependent kinase 5/CDK5 activator 1 (Homo sapiens, UniProt Q00535); experiment: Inhibition of CDK5/p25 (unknown origin); assay type: protein-complex assay
[3] = Inhibition of Marthasterias glacialis CDK1/cyclin B using histone H1 as substrate and [gamma32P]ATP after 10 min by scintillation counting
[4] = molecular target: Glycogen synthase kinase-3 (Homo sapiens, UniProt P49840+P49841); experiment: Inhibition of GSK3alpha/beta (unknown origin); assay type: protein assay
Staphylococcus aureus [5] = experiment: Antibacterial activity against Staphylococcus aureus ATCC 6538 after 48 hr by two fold serial dilution method; assay type: functional; conditions: ATCC 6538, 48 h
Staphylococcus aureus [6] = experiment: Antibacterial activity against Staphylococcus aureus ATCC 6538 incubated for 48 hr followed by subculturing measured after 18 hr; assay type: functional
Staphylococcus aureus [7] = experiment: Antibacterial activity against Staphylococcus aureus ATCC 6538 at 1 mg/ml after 24 hr by agar cup diffusion method; assay type: functional; conditions: ATCC 6538, 24 h, read-out: DIZ
Escherichia coli [8] = experiment: Antibacterial activity against Escherichia coli NCTC 10418 at 1 mg/ml after 24 hr by agar cup diffusion method; assay type: functional; conditions: NCTC 10418, 24 h, read-out: DIZ
Candida albicans [9] = experiment: Antifungal activity against Candida albicans ATCC 10231 after 48 hr by two-fold serial dilution method; assay type: functional; conditions: ATCC 10231, 48 h
Candida albicans [10] = experiment: Antifungal activity against Candida albicans ATCC 10231 incubated for 48 hr followed by subculturing measured after 18 hr; assay type: functional
Escherichia coli [11] = experiment: Antibacterial activity against Escherichia coli NCTC 10418 after 48 hr by two-fold serial dilution method; assay type: functional; conditions: NCTC 10418, 48 h
Pseudomonas aeruginosa [12] = experiment: Antibacterial activity against Pseudomonas aeruginosa ATCC 9027 incubated for 48 hr followed by subculturing measured after 18 hr; assay type: functional
Pseudomonas aeruginosa [13] = experiment: Antibacterial activity against Pseudomonas aeruginosa ATCC 9027 at 1 mg/ml after 24 hr by agar cup diffusion method; assay type: functional; conditions: ATCC 9027, 24 h, read-out: DIZ
Escherichia coli [14] = experiment: Antibacterial activity against Escherichia coli NCTC 10418 incubated for 48 hr followed by subculturing measured after 18 hr; assay type: functional
Pseudomonas aeruginosa [15] = experiment: Antibacterial activity against Pseudomonas aeruginosa ATCC 9027 after 48 hr by two-fold serial dilution method; assay type: functional; conditions: ATCC 9027, 48 h

Chain of Cyclin-dependent kinase 5/CDK5 activator 1 (Q00535 whole entry): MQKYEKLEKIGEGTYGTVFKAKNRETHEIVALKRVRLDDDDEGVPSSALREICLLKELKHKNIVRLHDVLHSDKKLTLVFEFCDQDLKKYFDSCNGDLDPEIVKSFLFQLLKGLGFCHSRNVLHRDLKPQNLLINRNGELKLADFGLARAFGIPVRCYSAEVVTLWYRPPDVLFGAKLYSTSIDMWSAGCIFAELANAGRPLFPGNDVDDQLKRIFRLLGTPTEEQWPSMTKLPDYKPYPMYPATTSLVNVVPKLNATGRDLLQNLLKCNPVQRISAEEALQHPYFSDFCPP
Chain of Cyclin-dependent kinase 5/CDK5 activator 1 (Q15078 whole entry, further chain): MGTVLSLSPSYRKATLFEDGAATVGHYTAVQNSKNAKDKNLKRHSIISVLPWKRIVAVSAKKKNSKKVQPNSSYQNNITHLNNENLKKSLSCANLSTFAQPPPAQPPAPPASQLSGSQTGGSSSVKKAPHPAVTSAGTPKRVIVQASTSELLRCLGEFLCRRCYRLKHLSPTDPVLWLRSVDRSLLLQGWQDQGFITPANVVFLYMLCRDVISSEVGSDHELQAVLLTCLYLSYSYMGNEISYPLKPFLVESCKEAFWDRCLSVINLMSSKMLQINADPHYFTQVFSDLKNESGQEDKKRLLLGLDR

Row | Compound | zone of inhibition at 1000 µg/mL (Candida albicans [1]) [mm] | IC50 [2] [µM] | IC50 [3] [µM] | IC50 [4] [µM] | MIC (Staphylococcus aureus [5]) [µg/mL] | MBC (Staphylococcus aureus [6]) [µg/mL] | zone of inhibition at 1000 µg/mL (Staphylococcus aureus [7]) [mm] | zone of inhibition at 1000 µg/mL (Escherichia coli [8]) [mm] | MIC (Candida albicans [9]) [µg/mL] | MFC (Candida albicans [10]) [µg/mL] | MIC (Escherichia coli [11]) [µg/mL] | MBC (Pseudomonas aeruginosa [12]) [µg/mL] | zone of inhibition at 1000 µg/mL (Pseudomonas aeruginosa [13]) [mm] | MBC (Escherichia coli [14]) [µg/mL] | MIC (Pseudomonas aeruginosa [15]) [µg/mL]
1 | COc1ccc(-c2nn(-c3ccccc3)cc2C2OC(=O)C(O)=C2Br)cc1 (configuration not stated) | 15 | > 10 | > 10 | > 10 |  |  |  |  |  |  |  |  |  |  | 
2 | O=C1OC(c2cn(-c3ccccc3)nc2-c2ccc(Br)cc2)C(Br)=C1O (configuration not stated) | 16 | > 10 | > 10 | > 10 | 125 (≈ 263 µM) | 250 (≈ 525 µM) | 18 | 17 |  |  |  |  |  |  | 
3 | Cc1nn(-c2ccccc2)c(C)c1C1OC(=O)C(O)=C1Cl (configuration not stated) | 16.5 | > 10 | > 10 | > 10 |  |  |  |  |  |  |  |  |  |  | 
4 | O=C1OC(c2ccccc2)C(I)=C1O (configuration not stated) | 20.5 | > 10 | > 10 | > 10 |  |  |  |  | 62.5 (≈ 207 µM) | 125 (≈ 414 µM) |  |  |  |  | 
5 | O=C1OC(c2ccc(Cl)cc2)C(I)=C1O (configuration not stated) | 17 | > 10 | > 10 | > 10 |  |  |  |  |  |  |  |  |  |  | 
6 | COc1ccc(C2OC(=O)C(O)=C2I)cc1OC (configuration not stated) | 17.5 | > 10 | > 10 | > 10 |  |  |  |  |  |  |  |  |  |  | 
7 | Cc1nn(-c2ccccc2)c(C)c1C1OC(=O)C(O)=C1I (configuration not stated) | 17.5 | > 10 | > 10 | > 10 | 31.2 (≈ 78.9 µM) | 62.5 (≈ 158 µM) | 19 |  |  |  |  |  |  |  | 
8 | O=C(COC1=C(Br)C(c2ccccc2)OC1=O)NCc1ccccc1 (configuration not stated) | 17 | > 10 | > 10 | > 10 | 7.81 (≈ 19.4 µM) | 15.6 (≈ 38.8 µM) | 23 | 24 |  |  | 7.81 (≈ 19.4 µM) | 31.2 (≈ 77.7 µM) | 25 | 15.6 (≈ 38.8 µM) | 7.81 (≈ 19.4 µM)
9 | O=c1[nH]c2ccccc2nc1/C(Cl)=C/c1ccc(Cl)cc1 | 17 | > 10 | > 10 | > 10 | 15.6 (≈ 49.2 µM) | 125 (≈ 394 µM) | 25 |  |  |  |  |  | 15 |  | 
10 | O=c1[nH]c2ccccc2nc1/C(I)=C/c1ccccc1 | 16 | > 10 | > 10 | > 10 |  |  |  |  |  |  |  |  |  |  | 
11 | O=c1[nH]c2ccccc2nc1/C(I)=C/c1ccc(Cl)cc1 |  | > 10 | > 10 | > 10 |  |  |  | 15 |  |  |  |  | 16.5 |  | 
12 | Cc1nn(-c2ccccc2)c(C)c1/C=C(\I)c1nc2ccccc2[nH]c1=O |  | > 10 | > 10 | > 10 |  |  |  | 20 |  |  | 62.5 (≈ 133 µM) |  | 17.5 | 250 (≈ 534 µM) | 
13 | O=C(O)/C(Br)=C/c1ccc(Cl)cc1 | 15 | > 10 | > 10 | > 10 | 125 (≈ 478 µM) | 500 (≈ 1910 µM) | 30 | 18 |  |  | 125 (≈ 478 µM) | 62.5 (≈ 239 µM) | 18 | 500 (≈ 1910 µM) | 31.2 (≈ 120 µM)
14 | Cc1nn(-c2ccccc2)c(C)c1/C=C(\Br)C(=O)O |  | > 10 | > 10 | > 10 |  |  |  | 19 |  |  | 31.2 (≈ 97.3 µM) | 62.5 (≈ 195 µM) | 20 | 125 (≈ 389 µM) | 31.2 (≈ 97.3 µM)
15 | O=C(O)/C(Br)=C/c1cn(-c2ccccc2)nc1-c1ccc(Br)cc1 | 15 | > 10 | > 10 | > 10 | 31.2 (≈ 69.7 µM) | 62.5 (≈ 139 µM) | 33 | 17 |  |  |  | 500 (≈ 1120 µM) | 18 |  | 250 (≈ 558 µM)
16 | O=C(O)C(=O)/C=C/c1cn(-c2ccccc2)nc1-c1ccccc1 | 21 | > 10 | > 10 | > 10 |  |  |  | 19 | 31.2 (≈ 98.2 µM) | 125 (≈ 393 µM) | 31.2 (≈ 98.2 µM) |  | 12 | 125 (≈ 393 µM) | 
17 | COc1ccc(-c2nn(-c3ccccc3)cc2/C=C/C(=O)C(=O)O)cc1 | 20 | > 10 | > 10 | > 10 | 125 (≈ 359 µM) | > 500 | 19 | 17 | 31.2 (≈ 89.7 µM) | 125 (≈ 359 µM) |  |  | 13 |  | 
18 | O=C(O)C(=O)/C=C/c1cn(-c2ccccc2)nc1-c1ccc(Br)cc1 | 21 | > 10 | > 10 | > 10 |  |  |  | 19 | 7.81 (≈ 19.7 µM) | 31.2 (≈ 78.7 µM) | 62.5 (≈ 157 µM) |  | 13 | > 500 | 
19 | O=C1OC(c2ccccc2)C(Br)=C1O (configuration not stated) | 20.5 | > 10 | > 10 | > 10 | 62.5 (≈ 245 µM) | > 500 | 23 | 21 | 31.2 (≈ 123 µM) | 62.5 (≈ 245 µM) | 62.5 (≈ 245 µM) |  | 13.5 | 250 (≈ 980 µM) | 
20 | O=C1OC(c2ccc(Cl)cc2)C(Br)=C1O (configuration not stated) | 21 | > 10 | > 10 | > 10 | 62.5 (≈ 216 µM) | 150 (≈ 518 µM) | 20 | 20 | 31.2 (≈ 108 µM) | 62.5 (≈ 216 µM) | 31.2 (≈ 108 µM) |  |  | 125 (≈ 432 µM) | 
21 | Cc1nn(-c2ccccc2)c(C)c1C1OC(=O)C(O)=C1Br (configuration not stated) | 17 | > 10 | > 10 | > 10 | 62.5 (≈ 179 µM) | 125 (≈ 358 µM) | 19 | 17 |  |  |  |  |  |  | 
22 | O=C1OC(c2cn(-c3ccccc3)nc2-c2ccccc2)C(Br)=C1O (configuration not stated) | 16.5 | > 10 | > 10 | > 10 |  |  |  | 19 |  |  | 62.5 (≈ 157 µM) | 125 (≈ 315 µM) | 19 | 250 (≈ 629 µM) | 62.5 (≈ 157 µM)
23 | CC1(C)S[C@@H]2[C@H](NC(=O)[C@H](N)c3ccccc3)C(=O)N2[C@H]1C(=O)O [AMPICILLIN] |  |  |  |  | 3.9 (≈ 11.2 µM) | 15.6 (≈ 44.7 µM) | 40 | 26 |  |  | 7.81 (≈ 22.4 µM) | 250 (≈ 715 µM) |  | 31.2 (≈ 89.4 µM) | 125 (≈ 358 µM)
24 | Clc1ccccc1C(c1ccccc1)(c1ccccc1)n1ccnc1 [CLOTRIMAZOLE] | 28 |  |  |  |  |  |  |  | 7.81 (≈ 22.6 µM) | 15.6 (≈ 45.3 µM) |  |  |  |  | 

Source: ChEMBL document CHEMBL3044604, “Synthesis of some substituted furan-2(5H)-ones and derived quinoxalinones as potential anti-microbial and anti-cancer agents” (Med Chem Res, 2011)
